Results taken from paper PMC9685933, “Tiliroside suppresses triple-negative breast cancer as a multifunctional CAXII inhibitor” (Cancer Cell International, 2022).

Molecular target: T1, CAXII (Homo sapiens, UniProt O43570)
T1 construct: gene CA12
Assay: CAXII esterase activity assay (4-nitrophenol absorbance) in MDA-MB-231 cells; […] in BT-549 cells
Format: cell-based

T1 sequence (O43570 25-354): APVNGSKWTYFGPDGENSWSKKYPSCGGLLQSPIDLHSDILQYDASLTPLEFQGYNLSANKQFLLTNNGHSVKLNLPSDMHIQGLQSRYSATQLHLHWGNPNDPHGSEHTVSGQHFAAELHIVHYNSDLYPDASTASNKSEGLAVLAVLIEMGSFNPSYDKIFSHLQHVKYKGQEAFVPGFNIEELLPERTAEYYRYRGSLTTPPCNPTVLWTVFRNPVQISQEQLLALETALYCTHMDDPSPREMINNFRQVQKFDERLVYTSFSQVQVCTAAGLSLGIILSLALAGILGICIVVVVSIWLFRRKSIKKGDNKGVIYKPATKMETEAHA

Q: With O=C(/C=C/c1ccc(O)cc1)OC[C@H]1O[C@@H](Oc2c(-c3ccc(O)cc3)oc3cc(O)cc(O)c3c2=O)[C@H](O)[C@@H](O)[C@@H]1O [TS, Tiliroside] as the compound, how does the IC50 read?
A: Its IC50 is 20.9 ± 5.8 µM.
